Holding throughout (assay): relative viability (nuclei count vs DMSO), 5 days (fraction); higher = more cells survive
Compound in the test “Mirin + Luminespib”: N=C1NC(=O)/C(=C/c2ccc(O)cc2)S1 [Mirin] + CCNC(=O)c1noc(-c2cc(C(C)C)c(O)cc2O)c1-c1ccc(CN2CCOCC2)cc1 [Luminespib] (partner 0.01 µM)
The essentials: (§1)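 Five library-drug doses in √10 steps were combined with a fixed anchor-drug dose, or a single drug was given alone, by pin tool to lung cancer cell lines in 1536-well plates the day after seeding. Nuclei were stained and counted after 5 days. Relative viability is the nuclei count in treated wells over that in vehicle wells, taken as the median of duplicate plates.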

Compound in test [1]: CCn1c(-c2nonc2N)nc2cnc(Oc3cccc(NC(=O)c4ccc(OCCN5CCOCC5)cc4)c3)cc21 + C[C@]1(O)C[C@@H](c2nc(-c3ccc4ccc(-c5ccccc5)nc4c3)c3c(N)nccn32)C1 [Linsitinib] (partner 1 µM)
The essentials: as §1

Compound in the test “Mirin + Pemetrexed”: N=C1NC(=O)/C(=C/c2ccc(O)cc2)S1 [Mirin] + Nc1nc2[nH]cc(CCc3ccc(C(=O)N[C@@H](CCC(=O)O)C(=O)O)cc3)c2c(=O)[nH]1 [Pemetrexed] (partner 0.2 µM)
The essentials: as §1

Compound in the test “Mirin + OSI-027”: N=C1NC(=O)/C(=C/c2ccc(O)cc2)S1 [Mirin] + COc1cccc2cc(-c3nc([C@H]4CC[C@H](C(=O)O)CC4)n4ncnc(N)c34)[nH]c12 [OSI-027] (partner 0.5 µM)
The essentials: as §1

Turning to PC-3 [JPC-3], the relative viability with Mirin + Luminespib (first compound 0.25 µM) is 0.664; with Mirin + Luminespib (first compound 0.7906 µM), 0.732; with Mirin + Luminespib (first compound 2.5 µM), 0.758; with Mirin + Luminespib (first compound 7.906 µM) it was 0.651; in the test with Mirin + Luminespib (first compound 25 µM), 0.787; in test [1] (first compound 0.04 µM), 0.945. The relative viability turned out to be 1 in test [1] (first compound 0.1265 µM); 0.969 in test [1] (first compound 0.4 µM); 0.968 in test [1] (first compound 1.265 µM); 0.947 in test [1] (first compound 4 µM); 1.11 with Mirin + Pemetrexed (first compound 0.25 µM); 1.03 with Mirin + Pemetrexed (first compound 0.7906 µM). Moreover, the relative viability in the test with Mirin + Pemetrexed (first compound 2.5 µM) was determined as 1.22; with Mirin + Pemetrexed (first compound 7.906 µM), 1.2; with Mirin + Pemetrexed (first compound 25 µM), 1.29; in the test with Mirin + OSI-027 (first compound 0.25 µM), 0.797; with Mirin + OSI-027 (first compound 0.7906 µM), 0.739; with Mirin + OSI-027 (first compound 2.5 µM), 0.774. Moreover, the relative viability with Mirin + OSI-027 (first compound 7.906 µM) stood at 0.669; in the test with Mirin + OSI-027 (first compound 25 µM) it was 0.753.
As to PC-14, the relative viability with Mirin + Luminespib (first compound 0.25 µM) was determined as 0.177; with Mirin + Luminespib (first compound 0.7906 µM) it was 0.142; with Mirin + Luminespib (first compound 2.5 µM), 0.191; with Mirin + Luminespib (first compound 7.906 µM), 0.187; with Mirin + Luminespib (first compound 25 µM), 0.144; in test [1] (first compound 0.04 µM), 1. In addition, the relative viability in test [1] (first compound 0.1265 µM) worked out at 0.901; in test [1] (first compound 0.4 µM), 0.878; in test [1] (first compound 1.265 µM), 0.716; in test [1] (first compound 4 µM) it was 0.648; with Mirin + Pemetrexed (first compound 0.25 µM), 0.127; in the test with Mirin + Pemetrexed (first compound 0.7906 µM), 0.14. The relative viability in the test with Mirin + Pemetrexed (first compound 2.5 µM) came to 0.143; in the test with Mirin + Pemetrexed (first compound 7.906 µM), 0.134; in the test with Mirin + Pemetrexed (first compound 25 µM) it was 0.171; with Mirin + OSI-027 (first compound 0.25 µM) it was 0.872; with Mirin + OSI-027 (first compound 0.7906 µM) it was 0.742; with Mirin + OSI-027 (first compound 2.5 µM), 0.792. For the same cell line, in the test with Mirin + OSI-027 (first compound 25 µM), the relative viability came to 0.728.
Turning to RERF-LC-KJ, the relative viability with Mirin + Luminespib (first compound 0.25 µM) is 1.25; in the test with Mirin + Luminespib (first compound 0.7906 µM), 1.25; in the test with Mirin + Luminespib (first compound 2.5 µM), 1.36; with Mirin + Luminespib (first compound 7.906 µM) it was 1.2; in the test with Mirin + Luminespib (first compound 25 µM), 1.18; in test [1] (first compound 0.04 µM), 1.06. The relative viability in test [1] (first compound 0.1265 µM) came to 0.976; in test [1] (first compound 0.4 µM) it was 0.877; in test [1] (first compound 1.265 µM) it was 0.721; in test [1] (first compound 4 µM), 0.637; in the test with Mirin + Pemetrexed (first compound 0.25 µM) it was 0.429; in the test with Mirin + Pemetrexed (first compound 0.7906 µM), 0.514. The relative viability was 0.485 with Mirin + Pemetrexed (first compound 2.5 µM); 0.49 with Mirin + Pemetrexed (first compound 7.906 µM); 0.42 with Mirin + Pemetrexed (first compound 25 µM); 0.691 in the test with Mirin + OSI-027 (first compound 0.25 µM); 0.59 with Mirin + OSI-027 (first compound 0.7906 µM); 0.596 with Mirin + OSI-027 (first compound 2.5 µM). In addition, the relative viability with Mirin + OSI-027 (first compound 7.906 µM) was 0.651; in the test with Mirin + OSI-027 (first compound 25 µM), 0.425.
Consider SK-LU-1, for which the relative viability is 0.193 with Mirin + Luminespib (first compound 0.25 µM); 0.188 in the test with Mirin + Luminespib (first compound 0.7906 µM); 0.228 with Mirin + Luminespib (first compound 2.5 µM); 0.163 with Mirin + Luminespib (first compound 7.906 µM); 0.197 with Mirin + Luminespib (first compound 25 µM); 1.17 in test [1] (first compound 0.04 µM). Besides, the relative viability was found to be 0.861 in test [1] (first compound 0.1265 µM); 0.906 in test [1] (first compound 0.4 µM); 0.439 in test [1] (first compound 1.265 µM); 0.423 in test [1] (first compound 4 µM); 0.983 with Mirin + Pemetrexed (first compound 0.25 µM); 0.992 in the test with Mirin + Pemetrexed (first compound 0.7906 µM). In addition, the relative viability was 0.931 in the test with Mirin + Pemetrexed (first compound 2.5 µM); 0.855 with Mirin + Pemetrexed (first compound 7.906 µM); 0.823 with Mirin + Pemetrexed (first compound 25 µM); 0.387 with Mirin + OSI-027 (first compound 0.25 µM); 0.35 with Mirin + OSI-027 (first compound 0.7906 µM); 0.333 with Mirin + OSI-027 (first compound 2.5 µM). Moreover, the relative viability came to 0.276 with Mirin + OSI-027 (first compound 7.906 µM) and 0.228 in the test with Mirin + OSI-027 (first compound 25 µM).
With SK-MES-1, the relative viability came out at 0.869 in the test with Mirin + Luminespib (first compound 0.25 µM); 0.915 in the test with Mirin + Luminespib (first compound 0.7906 µM); 0.88 in the test with Mirin + Luminespib (first compound 2.5 µM); 0.919 in the test with Mirin + Luminespib (first compound 7.906 µM); 0.7 with Mirin + Luminespib (first compound 25 µM); 1.24 in test [1] (first compound 0.04 µM). Moreover, the relative viability in test [1] (first compound 0.1265 µM) amounted to 0.952; in test [1] (first compound 0.4 µM), 0.896; in test [1] (first compound 1.265 µM) it was 0.774; in test [1] (first compound 4 µM) it was 0.823; in the test with Mirin + Pemetrexed (first compound 0.25 µM) it was 0.993; with Mirin + Pemetrexed (first compound 0.7906 µM) it was 1.09. The relative viability worked out at 0.998 with Mirin + Pemetrexed (first compound 2.5 µM); 1.08 with Mirin + Pemetrexed (first compound 7.906 µM); 1.01 in the test with Mirin + Pemetrexed (first compound 25 µM); 0.584 with Mirin + OSI-027 (first compound 0.25 µM); 0.643 with Mirin + OSI-027 (first compound 0.7906 µM); 0.684 with Mirin + OSI-027 (first compound 2.5 µM). The relative viability was determined as 0.558 with Mirin + OSI-027 (first compound 7.906 µM) and 0.528 with Mirin + OSI-027 (first compound 25 µM).
With SW 1573, the relative viability with Mirin + Luminespib (first compound 0.25 µM) stood at 0.228; with Mirin + Luminespib (first compound 0.7906 µM), 0.272; in the test with Mirin + Luminespib (first compound 2.5 µM) it was 0.247; with Mirin + Luminespib (first compound 7.906 µM), 0.201; with Mirin + Luminespib (first compound 25 µM), 0.205; in test [1] (first compound 0.04 µM), 0.905. For the same cell line, the relative viability in test [1] (first compound 0.1265 µM) was 0.744; in test [1] (first compound 0.4 µM), 0.833; in test [1] (first compound 1.265 µM) it was 0.479; in test [1] (first compound 4 µM), 0.342; in the test with Mirin + Pemetrexed (first compound 0.25 µM) it was 0.742; with Mirin + Pemetrexed (first compound 0.7906 µM), 0.84. For the same cell line, the relative viability with Mirin + Pemetrexed (first compound 2.5 µM) came out at 0.818; with Mirin + Pemetrexed (first compound 7.906 µM), 0.715; in the test with Mirin + Pemetrexed (first compound 25 µM) it was 0.642; in the test with Mirin + OSI-027 (first compound 0.25 µM), 0.616; with Mirin + OSI-027 (first compound 0.7906 µM), 0.428; with Mirin + OSI-027 (first compound 2.5 µM), 0.625. Also, the results for the relative viability in the test with Mirin + OSI-027 (first compound 7.906 µM) and with Mirin + OSI-027 (first compound 25 µM) were 0.524 and 0.307, respectively.

Source of the values: the supplement of paper PMC10307832.
